Common to all, as to format: cell-based, human
For one test, the system named is SCC4. As to the kind of experiment: alamarBlue cytotoxicity assay, SCC4. Particulars: 72 h of incubation. On the procedure: (§1) To assess the cytotoxicity of the GLI inhibitor GANT61 (Sigma-Aldrich, St. Louis, MO, USA) in tumor and non-tumor cell lines, an alamarBlue assay (Sigma-Aldrich Chemical Co, St. Louis, MO, USA) was performed after 72 h of exposure to the inhibitor, as described by Ahmed et al., 1994 [46]. Cells were distributed on 96-well plates at a density of 7 × 10^4 cells/mL for adhered cells, and 3 × 10^5 cells/mL for cells in suspension. All tested compounds were dissolved in DMSO, added to wells containing 100 µL of cells in complete medium, and then incubated for 72 h. Eight concentrations of GANT61 (0.19 to 50 µg/mL), Doxorubicin (Laboratory IMA S.A.I.C., Buenos Aires, Argentina), and 5-Fluorouracil (5-FU, Sigma-Aldrich, St. Louis, MO, USA), both used as positive controls at concentrations ranging from 0.03 to 5 µg/mL, were added to respective wells. […] Absorbance was measured at 570 nm (reduced) and 595 nm (oxidized) wavelengths, using a Spectramax 190 plate reader (Molecular Devices; Sunnyvale, CA, USA).
(§2) Statistical analyses were performed, using GraphPad Prism v. […] Data were analyzed according to distribution along the normal Gaussian curve. […] Differences between groups resulting from in vitro assays were evaluated by ANOVA (analysis of variance) testing, followed by the Student–Newman–Keuls test. […]
Background: Resazurin is reduced to fluorescent resorufin, in cell work by metabolically active cells.

The next test relates to HL60. As to the kind of experiment: alamarBlue cytotoxicity assay, HL60. As to conditions: 72 h of incubation. As to the method: as §1, §2
A further test deals with APC02. Nature of the test: alamarBlue cytotoxicity assay, APC02. Particulars: 72 h of incubation. On the procedure: as §1, §2
A further test concerns HaCat. As to the kind of experiment: alamarBlue cytotoxicity assay, HaCat. Particulars: 72 h of incubation. On the procedure:
as §1, §2

For the next test, the system named is GLI1 mRNA. As to the kind of experiment: qPCR of HH pathway gene expression in HSC3 cells, GLI1. Particulars: 12 h. As to the method: (§3) For total RNA isolation, HSC3 cells were plated on 6-well plates, at a density of 0.7 × 10^5 cells/mL (5 mL/well volume), and incubated overnight, followed by treatment with the GLI inhibitor for 12 h at both concentrations (18 and 36 µM).
(§4) All experiments were carried out under DNAse/RNAse-free conditions. Silica microcolumns were used for RNA extraction, using an RNeasy Plus Mini Kit (QIAGEN, Hilden, Germany). Extracted RNA was analyzed for quantity and purity, using a NanoDrop®® 1000 spectrophotometer (Thermo Fisher Scientific, Waltham, MA, USA).
(§5) Reverse transcription was performed by using Superscript VILO™ transcriptase enzyme (Invitrogen, Carlsbad, CA, USA). The cDNA samples were stored at −20 °C, until the time of use.
(§6) HH pathway component expression was evaluated in cells treated or not with GANT61 by qPCR, using TaqMan Gene Expression Assays^TM inventoried for the PTCH1 (Hs00181117_m1), GLI1 (Hs01110766_m1), GLI2 (Hs01119974_m1), and GLI3 (Hs00609233_m1) genes, as well as for B2 M (Hs99999907_m1). […]
(§7) Following amplification and dissociation runs, quantification cycle (Cq) values were obtained by using the ViiA7^TM System Operational Program (AppliedByosistems, Foster City, CA, USA). For relative quantification, the comparative method (2−∆∆Cq) described by Livak and Schmittgen, 2001 was used. […]

The test system of a further test is PTCH1 mRNA. Nature of the test: qPCR of HH pathway gene expression in HSC3 cells, PTCH1. As to conditions: HSC3, 36 µM, 12 h, not significant. As to the method:
as §3, §4, §5, §6, §7
For orientation: In qPCR the cycle at which signal appears reflects the starting amount.

The next test concerns GLI3 mRNA. Nature of the test: qPCR of HH pathway gene expression in HSC3 cells, GLI3. Particulars: HSC3, 18 and 36 µM, 12 h, not significant. On the procedure: as §3, §4, §5, §6, §7
In a further test the test system is PTCH1 protein. As to the kind of experiment: Western blot of HH pathway proteins in HSC3 cells, PTCH1. Particulars: HSC3, 18 and 36 µM, 24 h. As to the method: After culturing, HSC3 cells were washed with PBS and denatured by using cell lysis buffer containing 50 mM Tris-HCl (pH 7.4), 1% Triton X-100, 150 mM NaCl, 0.5 mM EGTA, 0.5 EDTA mM, and an anti-protease cocktail (Complete Pro-inhibitor Cocktail Tablets, Roche, Basel, Switzerland). Protein extracts (50 μg) were separated by SDS-PAGE and transferred to Hybond-C Extra (GE Healthcare, Chicago, IL, USA) nitrocellulose membranes. The following antibodies were used in the Western blot assay: mouse […] against Sonic Hedgehog (1:500, Clone 5 H4, Cat. number NBP2-22126, Novus Biologicals, Centennial, CO, USA), rabbit polyclonal against Gli1 (1:500, Novus Biologicals, Cat. number NB600-600), rabbit polyclonal against Patched 1 (1:500, Novus Biologicals, Cat.number NB200-118), and rabbit polyclonal against Smoothened (1:1000, Cat. number AB72130, Abcam, Cambridge, MA, USA). The secondary antibodies were anti-mouse IgG (1:10,000, Santa Cruz Biotechnology, Santa Cruz, CA, USA) and anti-rabbit IgG (1:10,000, GE Healthcare, Chicago, IL, USA). Signal detection was performed by using an ECL + Chemiluminescence Detection System (PerkinElmer, Villebon sur-Yvette, France). The antibody actin (1:10000, Cat. Number15 G5 A11/E2, Invitrogen, Carlsbad, CA, USA) was selected as an endogenous control for analysis of HH pathway component expression in HSC3 cells. […]
On the technique in general: A western blot detects proteins with antibodies after separation by electrophoresis.

By IC50 is commonly meant the concentration that gives 50% inhibition. Read a low IC50 as greater potency in that assay.

Structures are written as SMILES.

For `CN(C)c1ccccc1CN1CCCN(Cc2ccccc2N(C)C)C1c1ccncc1` [GANT61], the IC50 in the test on SCC4 is 111 µM; in the test with HL60 it was above 116 µM; in the test with APC02 it was above 116 µM; in the test on HaCat, 35.1 µM. Further, the “mRNA expression of GLI1” value in the test with GLI1 mRNA (HSC3, 18 µM, not significant) is “Reductions in mRNA expression”. Moreover, in the test with GLI1 mRNA (HSC3, 36 µM, vs negative (DMSO 0.2%) and positive (5-FU) controls), the “mRNA levels of GLI1” value was “statistically significant reduction”. In addition, the “mRNA expression of PTCH1” value with PTCH1 mRNA was “Reductions in mRNA expression”. The “mRNA expression of GLI3” value in the test on GLI3 mRNA is “Reductions in mRNA expression”. In addition, the PTCH1 protein expression entry in the test on PTCH1 protein is “reduced levels”.
